Results on 1 compound are retold here after US20090215752A1, “Compounds, preparation and therapeutic use thereof” (priority 2005, published 2009).

One experiment deals with T1, PDE5 (Bos taurus, UniProt Q28156).
T1 construct: PDE3, PDE4 and PDE5 from vascular smooth muscle; from tissue; host or cells: bovine aortic media (vascular smooth muscle), DEAE-Sephacel fraction
The experiment in a line: Selectivity: inhibition of PDE5 (radioenzymatic assay). The class given is biochemical, bovine. Particulars: Table 2; 10 μM compound; read-out: PDE5 percentage inhibition at 10 μM. The method, then:
(§1) 2.1.1. Isolation of Phosphodiesterases from Smooth Muscle A 3 g segment of bovine aortic media cut into pieces with scissors was homogenized with an ultra-turrax then a potter glass/glass homogenizer in 7 volumes by weight of buffer A containing a protease inhibitor cocktail (20 mM Tris-HCl, 0.25 M saccharose, 2 mM magnesium acetate, 1 mM dithiothreitol, 5 mM EGTA, 2000 U/ml aprotinin, 10 mg/l leupeptin and 10 mg/l soya trypsic inhibitor). The homogenizate was centrifuged at 105,000 g for 1 hour. The supernatant was loaded on a DEAE-Sephacel column (15×1.6 cm) pre-equilibrated with buffer B (buffer A without the saccharose, EGTA and protease inhibitors). The column was washed until there was no detectable absorption at 280 nm, then eluted with a linear gradient of NaCl (0-0.5 M) in buffer B. 3-ml fractions were collected and enzyme activity was determined under the conditions described hereinbelow to localize the different enzymes PDE1, PDE3, PDE4 and PDE5 which were aliquoted and frozen at −80° C. (Lugnier et al., Biochem. Phamacol., 1986, 35: 1746-1751). […]
(§2) Cyclic nucleotide phosphodiesterase activity was determined by a radioenzymatic method using tritium-labelled cyclic GMP or AMP (1 μM) as substrate (Lugnier et al., 1986). ^3H-labelled adenosine or guanosine monophosphate formed by hydrolysis of the radiolabelled cyclic nucleotide was then converted to ^3H-labelled adenosine or guanosine in a second reaction with one nucleotidase in excess. […] Nucleoside radioactivity was determined by liquid scintillation counting. […]
(§3) The activity of the compounds was evaluated on other phosphodiesterase isoforms, particularly basal state or calmodulin-activated PDE1 from vascular smooth muscle, PDE3, PDE4 and PDE5 from vascular smooth muscle. The results obtained are presented in Tables 1 and 2 hereinbelow and are expressed as the percentage inhibition of enzymatic activity produced by […] of the test compound.

Another experiment concerns PDE1. The experiment in a line: Selectivity: inhibition of PDE1 (radioenzymatic assay). The class given is biochemical, bovine. Particulars: Table 2; 10 μM compound. As for the experimental part: as §1, §2, §3
The test system of a further experiment is PDE4. The experiment in a line: Selectivity: inhibition of PDE4 (radioenzymatic assay). The class given is biochemical, bovine. Particulars: Table 2; 10 μM compound. As for the experimental part: (§4) 2.1.1. Isolation of Phosphodiesterases from Smooth Muscle A 3 g segment of bovine aortic media cut into pieces with scissors was homogenized with an ultra-turrax then a potter glass/glass homogenizer in 7 volumes by weight of buffer A containing a protease inhibitor cocktail (20 mM Tris-HCl, 0.25 M saccharose, 2 mM magnesium acetate, 1 mM dithiothreitol, 5 mM EGTA, 2000 U/ml aprotinin, 10 mg/l leupeptin and 10 mg/l soya trypsic inhibitor). The homogenizate was centrifuged at 105,000 g for 1 hour. The supernatant was loaded on a DEAE-Sephacel column (15×1.6 cm) pre-equilibrated with buffer B (buffer A without the saccharose, EGTA and protease inhibitors). The column was washed until there was no detectable absorption at 280 nm, then eluted with a linear gradient of NaCl (0-0.5 M) in buffer B. 3-ml fractions were collected and enzyme activity was determined under the conditions described hereinbelow to localize the different enzymes PDE1, PDE3, PDE4 and PDE5 which were aliquoted and frozen at −80° C. (Lugnier et al., Biochem. Phamacol., 1986, 35: 1746-1751). PDE2 was isolated from human platelets, provided by Etablissement Français du Sang-Alsace, according to Kameni Tcheudji J F et al., (J. Mol. Biol. 2001; 310: 181-791), and stored until use at −80° C. in small aliquots.
(§5) Cyclic nucleotide phosphodiesterase activity was determined by a radioenzymatic method using tritium-labelled cyclic GMP or AMP (1 μM) as substrate (Lugnier et al., 1986). ^3H-labelled adenosine or guanosine monophosphate formed by hydrolysis of the radiolabelled cyclic nucleotide was then converted to ^3H-labelled adenosine or guanosine in a second reaction with […] in excess. The nucleoside formed was separated from the nucleotides by anion exchange chromatography. Nucleoside radioactivity was determined by liquid scintillation counting. Enzymatic incubations were carried out under conditions allowing no more than 15% hydrolysis of the substrate; each point was performed in duplicate.
as §3

The next experiment addresses T2, PDE2 (Homo sapiens, UniProt O00408).
T2 construct: PDE2 was isolated from human platelets, provided by Etablissement Français du Sang-Alsace; tissue Etablissement Français du Sang-Alsace; host or cells: human platelets
The experiment in a line: Inhibition of PDE2 (radioenzymatic phosphodiesterase assay). The class given is biochemical. As for the experimental part: as §4, §5
The concentration of substance which inhibits enzymatic activity by 50% (IC50) at 1 μM cyclic AMP was calculated by nonlinear regression from the experimental values of hydrolysis rate (Prism, GraphPad).

A further experiment deals with T3, PDE3 (Bos taurus, UniProt A0A3Q1M1E8).
T3 sequence (A0A3Q1M1E8 1-1126): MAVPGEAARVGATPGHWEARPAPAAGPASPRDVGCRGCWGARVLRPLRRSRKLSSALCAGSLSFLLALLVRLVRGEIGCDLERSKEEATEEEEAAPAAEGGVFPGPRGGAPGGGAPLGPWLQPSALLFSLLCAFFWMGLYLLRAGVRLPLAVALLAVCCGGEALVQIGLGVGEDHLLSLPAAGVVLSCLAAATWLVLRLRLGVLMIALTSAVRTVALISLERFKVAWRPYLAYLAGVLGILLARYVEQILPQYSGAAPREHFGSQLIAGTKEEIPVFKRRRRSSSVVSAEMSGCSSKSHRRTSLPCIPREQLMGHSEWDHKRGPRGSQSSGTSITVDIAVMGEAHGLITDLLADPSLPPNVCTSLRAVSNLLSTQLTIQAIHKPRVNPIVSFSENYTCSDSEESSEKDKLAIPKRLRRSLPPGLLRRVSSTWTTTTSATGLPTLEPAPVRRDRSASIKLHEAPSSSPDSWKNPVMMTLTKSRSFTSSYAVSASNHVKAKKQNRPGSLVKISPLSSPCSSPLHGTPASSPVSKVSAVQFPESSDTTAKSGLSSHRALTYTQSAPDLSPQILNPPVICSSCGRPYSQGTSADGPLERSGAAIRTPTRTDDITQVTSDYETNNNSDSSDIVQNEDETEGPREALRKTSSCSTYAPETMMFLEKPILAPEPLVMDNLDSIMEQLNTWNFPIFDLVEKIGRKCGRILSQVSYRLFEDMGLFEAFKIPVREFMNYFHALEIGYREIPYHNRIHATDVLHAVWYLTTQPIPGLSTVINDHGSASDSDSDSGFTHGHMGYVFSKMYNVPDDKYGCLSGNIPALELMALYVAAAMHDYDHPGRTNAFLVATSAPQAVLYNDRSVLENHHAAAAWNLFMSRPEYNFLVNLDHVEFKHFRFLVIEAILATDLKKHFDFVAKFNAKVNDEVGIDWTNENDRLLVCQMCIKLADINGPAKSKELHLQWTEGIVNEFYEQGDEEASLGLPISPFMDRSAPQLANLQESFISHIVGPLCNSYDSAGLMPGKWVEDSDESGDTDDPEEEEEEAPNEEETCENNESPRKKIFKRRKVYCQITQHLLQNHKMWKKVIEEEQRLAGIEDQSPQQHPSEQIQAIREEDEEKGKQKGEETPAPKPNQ
Description: Selectivity: inhibition of PDE3 (radioenzymatic assay). The class given is biochemical, bovine. Particulars: Table 2; 10 μM compound; read-out: PDE3 percentage inhibition at 10 μM. The method, then: as §1, §2, §3

By inhibition is commonly meant the change of the read-out against control, counted positive when it falls. The term IC50 denotes the point on the concentration scale where inhibition reaches its midpoint.

T2 sequence (O00408 whole entry): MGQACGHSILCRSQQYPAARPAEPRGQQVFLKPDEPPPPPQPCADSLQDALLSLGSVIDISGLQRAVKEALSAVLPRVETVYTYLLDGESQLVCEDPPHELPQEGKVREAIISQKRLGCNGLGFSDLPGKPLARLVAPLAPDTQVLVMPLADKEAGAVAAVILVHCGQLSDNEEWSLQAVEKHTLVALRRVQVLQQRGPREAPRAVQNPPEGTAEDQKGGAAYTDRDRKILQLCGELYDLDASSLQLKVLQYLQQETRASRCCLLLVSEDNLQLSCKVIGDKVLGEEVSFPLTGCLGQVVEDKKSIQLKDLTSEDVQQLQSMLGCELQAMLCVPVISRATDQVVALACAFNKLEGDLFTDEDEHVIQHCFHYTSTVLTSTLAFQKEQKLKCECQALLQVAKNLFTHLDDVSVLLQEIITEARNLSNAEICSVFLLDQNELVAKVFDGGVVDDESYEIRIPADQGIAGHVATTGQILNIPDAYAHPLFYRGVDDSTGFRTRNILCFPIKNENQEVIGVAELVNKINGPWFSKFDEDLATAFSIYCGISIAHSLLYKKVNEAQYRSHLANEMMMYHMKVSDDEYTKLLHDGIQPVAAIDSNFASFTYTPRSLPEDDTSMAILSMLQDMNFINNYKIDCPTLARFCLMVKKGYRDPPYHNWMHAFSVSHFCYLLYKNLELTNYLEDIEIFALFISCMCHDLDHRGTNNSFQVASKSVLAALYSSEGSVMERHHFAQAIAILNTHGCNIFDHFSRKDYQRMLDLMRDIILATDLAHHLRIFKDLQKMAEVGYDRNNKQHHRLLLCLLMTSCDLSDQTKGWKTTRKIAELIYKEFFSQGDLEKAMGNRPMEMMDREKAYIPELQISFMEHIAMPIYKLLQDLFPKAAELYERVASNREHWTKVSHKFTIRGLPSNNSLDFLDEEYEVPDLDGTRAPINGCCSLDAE

With `COCCCc1cccc(C2=NCC(=O)N(C)c3cc(OC)c(-c4ccccc4)c(OC)c32)c1` [Compound 29, 6,8-Dimethoxy-5-[3-(3-methoxy-propyl)-phenyl]-1-methyl-7-phenyl-1,3-dihydro-benzo[e][1,4]diazepin-2-one], the inhibition at 10 µM on PDE5 was 19%; at PDE2 (Table 1, 10 μM compound, 1 μM cyclic AMP, read-out: PDE2 percentage inhibition at 10 μM), 91%; on PDE3 it was 40%. Besides, in the experiment on PDE1, the “PDE1 percentage inhibition at 10 μM” value came to 31%. The “PDE4 percentage inhibition at 10 μM” value with PDE4 is 49%. This compound registered a concentration for half-maximal inhibition (IC50) on PDE2 of 800 nM.
